Columns and labels:
[1] = Fluoride (TBAF in DMSO) induced chemiluminescence; assay type: physicochemical
[2] = Thermal stability / stability on silica of dioxetanes; assay type: physicochemical; conditions: TLC on silica versus NMR
Description: (c) Synthesis of 4-ethylthio-4-(3-pivaloyloxyphenyl)spiro-[1,2-dioxetane-3,2'-tricyclo[3.3.1.1^3,7 ]decane] (2).

[3] = Base-induced decay of chemiluminescence of hydroxyphenyl alkylthio dioxetane in 221 buffer pH 9.6 with surfactant enhancers; assay type: physicochemical; conditions: for t1/2 (decay of chemiluminescence): 0.2 M 221 buffer, pH 9.6, 0.88 mM Mg+2, ambient temperature
Procedure: The first order decay of chemiluminescence of dioxetane 3 in 0.2 M 221 buffer, pH 9.6 containing 0.88 mM Mg^+2 and the surfactant enhancers shown below was measured at ambient temperature. Surfactant A is CTAB, B is poly(vinylbenzyltributylphosphonium chloride), C is poly(vinylbenzyltributylphosphonium chloride)-co-poly(vinylbenzyltrioctylphosphonium chloride), D is 1-trioctylphoniummethyl-4-tributylphosphonium-methylbenzene dichloride.

[4] = Base-induced decay of chemiluminescence of hydroxyphenyl alkoxy or aryloxy dioxetanes in 221 buffer pH 9.6; assay type: physicochemical; conditions: 0.2 M 221 buffer, 0.88 mM Mg+2, 1.0 mg/mL 1-trioctylphosphoniummethyl-4-tributylphosphoniummethylbenzene dichloride
Procedure: The first order decay of chemiluminescence of dioxetanes 14-19 in 0.2 M 2-methyl-2-amino-1-propanol (221) buffer, pH 9.6 containing 0.88 mM Mg^+2 and 1.0 mg/mL of 1-trioctylphosphoniummethyl-4-tributylphosphoniummethylbenzene dichloride was measured at 37° C. in a Turner Designs (Sunnyvale, Calif.) model TD-20e luminometer. The half-lives of decay of chemiluminescence (t1/2) of hydroxy-dioxetanes correlate with the times required to reach the maximum light intensity (Imax) in the alkaline phosphatase-triggered decomposition of the corresponding phosphate-dioxetanes under the same conditions. […] It is expected that, for example, the phosphate derivatives of dioxetanes 14-19 as well as others which can be produced by the process described herein will be useful in alkaline phosphatase-linkedassays known in the art.

[5] = Chemiluminescence on heating

t1/2 37° C. (half-life of decay of chemiluminescence) [4]	SMILES	chemiluminescence colour ([1]; 0.1 M TBAF in DMSO)	also measured
	CCSC1(c2cccc(O)c2)OOC12C1CC3CC(C1)CC2C3 (centres unmarked) [Dioxetane 1, 4-Ethylthio-4-(3-hydroxyphenyl)spiro[1,2-dioxetane-3,2'-tricyclo[3.3.1.1^3,7]decane]]	yellow emission	chemiluminescence colour ([1]; excess TBAF in DMSO): yellow chemiluminescence
	CCSC1(c2cccc(OC(=O)C(C)(C)C)c2)OOC12C1CC3CC(C1)CC2C3 (centres unmarked) [Dioxetane 2, 4-Ethylthio-4-(3-pivaloyloxyphenyl)spiro[1,2-dioxetane-3,2'-tricyclo-[3.3.1.1^3,7]decane]]		chemiluminescence colour ([1]; excess TBAF in DMSO): yellow chemiluminescence; stability on silica [2]: less stable on silica
	Oc1cccc(C2(Sc3ccc(F)cc3)OOC23C2CC4CC(C2)CC3C4)c1 (centres unmarked) [Dioxetane 3, 4-(p-Fluorophenylthio)-4-(3-hydroxyphenyl)spiro[1,2-dioxetane-3,2'-tricyclo-[3.3.1.1^3,7]decane]]		t1/2 (decay of chemiluminescence) ([3]; Surfactant A (CTAB) 0.41 g/L): 11.2 min; t1/2 (decay of chemiluminescence) ([3]; Surfactant B (poly(vinylbenzyltributylphosphonium chloride)) 0.5 g/L): 4.2 min; t1/2 (decay of chemiluminescence) ([3]; Surfactant C (poly(vinylbenzyltributylphosphonium chloride)-co-poly(vinylbenzyltrioctylphosphonium chloride)) 0.5 g/L): 2.9 min; t1/2 (decay of chemiluminescence) ([3]; Surfactant D (1-trioctylphoniummethyl-4-tributylphosphonium-methylbenzene dichloride) 1.0 g/L): 2.0 min; kinetics for light emission compared with dioxetane 6 or alkoxy-substituted analogues ([3]; alkaline amine buffer containing metal salts): comparable to dioxetane 6
	CC(C)(C)C(=O)Oc1cccc(C2(Sc3ccc(F)cc3)OOC23C2CC4CC(C2)CC3C4)c1 (centres unmarked) [Dioxetane 4, 4-(p-Fluorophenylthio)-4-(3-pivaloyloxyphenyl)spiro[1,2-dioxetane-3,2'tricyclo-[3.3.1.1^3,7]decane]]	yellow emission	chemiluminescence colour ([1]; excess TBAF in DMSO): red chemiluminescence
	Oc1cccc(C2(SCC(F)(F)F)OOC23C2CC4CC(C2)CC3C4)c1 (centres unmarked) [Dioxetane 5, 4-(2,2,2-trifluoroethylthio)-4-(3-hydroxyphenyl)spiro[1,2-dioxetane-3,2'-tricyclo[3.3.1.1^3,7]decane]]		chemiluminescence colour ([1]; excess TBAF in DMSO): orange-yellow light
	COC1(c2cccc(O)c2)OOC12C1CC3CC(C1)CC2C3 (centres unmarked) [Dioxetane 6, 4-(3-Hydroxyphenyl)-4-methoxyspiro[1,2-dioxetane-3,2'-tricyclo[3.3.1.1^3,7]decane]]	blue emission	
	CC(C)OC1(c2cccc(O)c2)OOC12C1CC3CC(C1)CC2C3 (centres unmarked) [Dioxetane 7, 4-Isopropoxy-4-(3-hydroxyphenyl)spiro[1,2-dioxetane-3,2'-tricyclo[3.3.1.1^3,7]decane]]	blue emission	
	C=CCOC1(c2cccc(O)c2)OOC12C1CC3CC(C1)CC2C3 (centres unmarked) [Dioxetane 8, 4-(3-Hydroxyphenyl)-4-(2-propenyloxy) spiro[1,2-dioxetane-3,2'-tricyclo[3.3.1.1^3,7]decane]]	blue emission	
	N#CCCOC1(c2cccc(O)c2)OOC12C1CC3CC(C1)CC2C3 (centres unmarked) [Dioxetane 9, 4-(2-Cyanoethoxy)-4-(3-hydroxyphenyl)spiro[1,2-dioxetane-3,2'-tricyclo-[3.3.1.1^3,7]decane]]	blue emission	
	OCCOC1(c2cccc(O)c2)OOC12C1CC3CC(C1)CC2C3 (centres unmarked) [Dioxetane 10, 4-(2-Hydroxyethoxy)-4-(3-hydroxyphenyl)spiro[1,2-dioxetane-3,2'-tricyclo-[3.3.1.1^3,7]decane]]	blue emission	
	Oc1cccc(C2(Oc3ccccc3)OOC23C2CC4CC(C2)CC3C4)c1 (centres unmarked) [Dioxetane 11, 4-(3-Hydroxyphenyl)-4-phenoxyspiro[1,2-dioxetane-3,2'-tricyclo[3.3.1.1^3,7]decane]]	blue emission	
0.16 min	Oc1cccc(C2(OC(C(F)(F)F)C(F)(F)F)OOC23C2CC4CC(C2)CC3C4)c1 (centres unmarked) [Dioxetane 14, 4-(Hexafluoroisopropoxy)-4-(3-hydroxyphenyl)spiro[1,2-dioxetane-3,2'-tricyclo-[3.3.1.1^3,7]decane]]		
3.7 min	Oc1cccc(C2(OCC(Cl)(Cl)Cl)OOC23C2CC4CC(C2)CC3C4)c1 (centres unmarked) [Dioxetane 15, 4-(3-Hydroxyphenyl)-4-(2 2,2-trichloroethoxy)spiro[1,2-dioxetane-3,2'-tricyclo-[3.3.1.1^3,7]decane]]		
4.1 min	Oc1cccc(C2(OCC(Cl)Cl)OOC23C2CC4CC(C2)CC3C4)c1 (centres unmarked) [Dioxetane 16, 4-(2,2-Dichloroethoxy)-4-(3-hydroxyphenyl)spiro[1,2-dioxetane-3,2'-tricyclo-[3.3.1.1^3,7]decane]]		
3.4 min	Oc1cccc(C2(OCC(F)(F)C(F)(F)F)OOC23C2CC4CC(C2)CC3C4)c1 (centres unmarked) [Dioxetane 17, 4-(3-Hydroxyphenyl)-4-(2,2,3,3,3-pentafluoropropoxy)spiro[1,2-dioxetane-3,2'-tricyclo[3.3.1.1^3,7]decane]]		
1.76 min	Oc1cccc(C2(Oc3c(F)cccc3F)OOC23C2CC4CC(C2)CC3C4)c1 (centres unmarked) [Dioxetane 19, 4-(2',6'-Difluorophenoxy)-4-(3-hydroxyphenyl)spiro[1,2-dioxetane-3,2'-tricyclo[3.3.1.1^3,7]decane]]		
	COC1(c2cccc(OC(=O)C(C)(C)C)c2)OOC12C1CC3CC(C1)CC2C3 (centres unmarked) [Dioxetane 20, 4-Methoxy-4-(3-pivaloyloxyphenyl)spiro[1,2-dioxetane-3,2'-tricyclo-[3.3.1.1^3,7]decane]]	blue emission	
	COC1(c2cccc(O[Si](C)(C)C(C)(C)C)c2)OOC12C1CC3CC(C1)CC2C3 (centres unmarked) [Dioxetane 21]	blue chemiluminescence	chemiluminescence on heating [5]: blue chemiluminescence
	COC1(c2cccc(O[Si](c3ccccc3)(c3ccccc3)C(C)(C)C)c2)OOC12C1CC3CC(C1)CC2C3 (centres unmarked) [Dioxetane 22]	blue chemiluminescence	chemiluminescence on heating [5]: blue chemiluminescence

SMILES	t1/2 37° C. (half-life of decay of chemiluminescence) [4]	chemiluminescence colour ([1]; 0.1 M TBAF in DMSO)	also measured
Oc1cccc(C2(OCC(F)(F)C(F)(F)C(F)(F)F)OOC23C2CC4CC(C2)CC3C4)c1 (centres unmarked) [Dioxetane 18, 4-(2,2,3,3,4,4,4-Heptafluorobutoxy)-4-(3-hydroxyphenyl)spiro[1,2-dioxetane-3,2'-tricyclo[3.3.1.1^3,7]decane]]	4.9 min		

Reference: patent US5936101A, “Process for the preparation of 1,2-dioxetane compounds and novel sulfur-substituted 1,2-dioxetane compounds as intermediates” (Lumigen, Inc., priority 1997, dated 1999)
